SMILES strings stand for the structures. Counter-ions that a name gives are not always drawn.

A word on the melting point: it is the temperature, or range, at which the solid turns liquid.

As to `Cc1cc(C)c(N2CCCc3c2nn(C)c3CN2CCc3ccccc3C2)c(C)c1` (as salt: hydrochloride) [Compound 7-5, 2-[2-Methyl-7-(2,4,6-trimethyl-phenyl)-4,5,6,7-tetrahydro-2H-pyrazolo[3,4-b]pyridin-3-ylmethyl]-1,2,3,4-tetetrahydroisoquinolinedihydrochloride], the melting point fell in the range of 236.4 to 241 °C.

Regarding `Cc1cc(C)c(N2CCCc3c2nn(C)c3Br)c(Cl)c1` [Compound 1-1, 3-Bromo-7-(2-chloro-4,6-dimethylphenyl)-2-methyl-4,5,6,7-tetrahydro-2H-pyrazolo[3,4-b]pyridine], the melting point was 106 to 107 °C.

`Cc1cc(C)c(N2CCCc3c2nn(C)c3Br)c(C)c1` [Compound 1-3, 3-Bromo-2-methyl-7-(2,4,6-trimethyl-phenyl)-4,5,6,7-tetrahydro-2H-pyrazolo[3,4-b]pyridine] gave a melting point of 94.6 to 97.9 °C.

On to `Cn1nc2c(c1Br)CCCN2c1c(Cl)cc(Cl)cc1Cl` [Compound 1-6, 3-Bromo-2-methyl-7-(2,4,6-trichloro-phenyl)-4,5,6,7-tetrahydro-2H-pyrazolo[3,4-b]pyridine], for which the melting point was in the range of 100 to 101 °C.

Regarding `COc1ccc(N2CCCc3c2nn(C)c3Br)c(C)c1` [Compound 1-7, 3-Bromo-2-methyl-7-(4-methoxy 2-methyl-phenyl)-4,5,6,7-tetrahydro-2H-pyrazolo[3,4-b]pyridine], the melting point was in the range of 101.7 to 104.1 °C.

As for `Cn1nc2c(c1Br)CCCN2c1ccc(Cl)cc1` [Compound 1-8, 3-Bromo-2-methyl-7-(4-chloro-phenyl)-4,5,6,7-tetrahydro-2H-pyrazolo[3,4-b]pyridine], the melting point is 113.8 to 114.9 °C.

`Cn1nc2c(c1Cl)CCCN2c1ccc(Cl)cc1` [Compound 1-10, 3-chloro-7-(4-chloro-phenyl)-2-methyl-4,5,6,7-tetrahydro-2H-pyrazolo [3,4-b]pyridine] had a melting point of 96.5 to 97.5 °C.

`Cc1cc(C)c(N2CCCc3c2nn(C)c3Cl)c(C)c1` [Compound 1-11, 3-chloro-7-(2,4,6-trimethyl-phenyl)-2-methyl-4,5,6,7-tetrahydro-2H-pyrazolo[3,4-b]pyridine] returned a melting point of 83 to 86 °C.

As to `Cc1cc(C)c(N2CCCc3c2[nH]n(C)c3=O)c(Cl)c1` [Compound 1-15, 7-(2-Chloro-4,6-dimethyl-phenyl)-2-methyl-1,2,4,5,6,7-hexahydro-pyrazolo[3,4-b]pyridin-3-one], the melting point was 103 to 109 °C.

Regarding `Cn1[nH]c2c(c1=O)CCCN2c1ccc(Cl)cc1Cl` [Compound 1-16, 7-(2,4-dichloro-phenyl)-2-methyl-1,2,4,5,6,7-hexahydro-pyrazolo[3,4-b]pyridin-3-one], the melting point lay within 98 to 100.5 °C.

In turn, `Cn1[nH]c2c(c1=O)CCCN2c1ccc(Cl)cc1` [Compound 1-17, 7-(4-chloro-phenyl)-2-methyl-1,2,4,5,6,7-hexahydro-pyrazolo[3,4-b]pyridin-3-one] came in with a melting point of 219.5 to 221.6 °C.

`CCCC(O)(CCC)c1c2c(nn1C)N(c1c(C)cc(C)cc1Cl)CCC2` [Compound 2-1, 4-[7-(2-Chloro-4,6-dimethylphenyl)-2-methyl-4,5,6,7-tetrahydro-2H-pyrazolo[3,4-b]pyridin-3-yl]heptan-4-ol] displayed a melting point of 129 to 130 °C.

Regarding `CCCC(O)(CCC)c1c2c(nn1C)N(c1c(C)cc(C)cc1C)CCC2` [Compound 2-2, 4-[2-Methyl-7-(2,4,6-trimethylphenyl)-4,5,6,7-tetrahydro-2H-pyrazolo[3,4-b]pyridin-3-yl] heptan-4-ol], the melting point fell in the range of 126 to 127.9 °C.

Compound `CCCC(O)(c1cccs1)c1c2c(nn1C)N(c1c(C)cc(C)cc1C)CCC2` (centres unmarked) [Compound 2-3, 1-[2-Methyl-7-(2,4,6-trimethylphenyl)-4,5,6,7-tetrahydro-2H-pyrazolo[3,4-b]pyridin-3-yl]-1-thiophen-2-ylbutan-1-ol] registered a melting point of 175.9 to 178.4 °C.

For `CCCC(O)(CCC)c1c2c(nn1C)N(c1c(C)cc(C)cc1C)CCCC2` [Compound 2-4, 4-[2-Methyl-8-(2,4,6-trimethylphenyl)-2,4,5,6,7,8-hexahydro-1,2,8-triazaazulen-3-yl]heptan-4-ol], the melting point was 87 to 91.1 °C.

For `CCCC(O)(CCC)c1c2c(nn1C)N(c1ccc(Cl)cc1Cl)CCC2` [Compound 2-5, 4-[7-(2,4-Dichlorophenyl)-2-methyl-4,5,6,7-tetrahydro-2H-pyrazolo [3,4-b]pyridin-3-yl]heptan-4-ol], the melting point fell in the range of 121.4 to 122.6 °C.

Consider `COCC(O)(COC)c1c2c(nn1C)N(c1c(C)cc(C)cc1C)CCC2` [Compound 2-6, 1,3-Dimethoxy-2-[2-methyl-7-(2,4,6-trimethylphenyl)-4,5,6,7-tetrahydro-2H-pyrazolo[3,4-b]pyridin-3-yl]propan-2-ol], for which the melting point lay in the range of 120.3 to 121.8 °C.

Turning to `COCCC(O)(COC)c1c2c(nn1C)N(c1c(C)cc(C)cc1C)CCC2` (centres unmarked) [Compound 2-7, 1,4-Dimethoxy-2-[2-methyl-7-(2,4,6-trimethylphenyl)-4,5,6,7-tetrahydro-2H-pyrazolo[3,4-b]pyridin-3-yl]butan-2-ol], the melting point was in the range of 107.9 to 110.9 °C.

Compound `CCCC(O)(c1nccs1)c1c2c(nn1C)N(c1c(C)cc(C)cc1C)CCC2` (centres unmarked) [Compound 2-8, 1-[2-Methyl-7-(2,4,6-trimethylphenyl)-4,5,6,7-tetrahydro-2H-pyrazolo[3,4-b]pyridin-3-yl]-1-thiazol-2-ylbutan-1-ol] registered a melting point of 160.1 to 165.6 °C.

In turn, `Cc1cc(C)c(N2CCCc3c2nn(C)c3C(O)c2ccco2)c(C)c1` (centres unmarked) [Compound 2-9, Furan-2-yl[2-methyl-7-(2,4,6-trimethyl-phenyl)-4,5,6,7-tetrahydro-2H-pyrazolo[3,4-b]pyridin-3-yl]methanol] displayed a melting point of 163.1 to 174.4 °C.

`CCC(O)c1c2c(nn1C)N(c1c(C)cc(C)cc1C)CCC2` (centres unmarked) [Compound 2-10, 1-[2-Methyl-7-(2,4,6-trimethylphenyl)-4,5,6,7-tetrahydro-2H-pyrazolo[3,4-b]pyridin-3-yl]propan-1-ol] displayed a melting point of 179.4 to 180.9 °C.

For `CCCC(O)(c1nccn1CC)c1c2c(nn1C)N(c1c(C)cc(C)cc1C)CCC2` (centres unmarked) [Compound 2-11, 1-(1-Ethyl-1H-imidazol-2-yl)-1-[2-methyl-7-(2,4,6-trimethylphenyl)-4,5,6,7-tetrahydro-2H-pyrazolo[3,4-b]pyridin-3-yl]butan-1-ol], the melting point was in the range of 94.9 to 100.9 °C.

For the compound `Cc1cc(C)c(N2CCCc3c2nn(C)c3C2(O)CCOCC2)c(C)c1` [Compound 2-12, 4-[2-Methyl-7-(2,4,6-trimethylphenyl)-4,5,6,7-tetrahydro-2H-pyrazolo[3,4-b]pyridin-3-yl]tetrahydropyran-4-ol], the melting point is 193 to 195.1 °C.

For the compound `Cc1cc(C)c(N2CCCc3cn(C)nc32)c(Cl)c1` [Compound 2-13, 7-(2-Chloro-4,6-dimethylphenyl)-2-methyl-4,5,6,7-tetrahydro-2H-pyrazolo[3,4-b]pyridine], the melting point lay in the range of 97 to 98 °C.

In turn, `CC(O)c1c2c(nn1C)N(c1ccc(Cl)cc1Cl)CCC2` (centres unmarked) [Compound 2-14, 1-[7-(2,4-Dichloro-phenyl)-2-methyl-4,5,6,7-tetrahydro-2H-pyrazolo[3,4-b]pyridin-3-yl]-ethanol] yielded a melting point of 56.7 to 64 °C.

`Cc1cc(C)c(N2CCCc3c2nn(C)c3C(C)O)c(C)c1` (centres unmarked) [Compound 2-15, 1-[7-(2,4,6-trimethyl-phenyl)-2-methyl-4,5,6,7-tetrahydro-2H-pyrazolo[3,4-b]pyridin-3-yl]-ethanol] registered a melting point of 178 to 179.6 °C.

As to `Cc1cc(C)c(N2CCCc3c2nn(C)c3C(C)(C)O)c(C)c1` [Compound 2-16, 2-[7-(2,4,6-trimethyl-phenyl)-2-methyl-4,5,6,7-tetrahydro-2H-pyrazolo[3,4-b]pyridin-3-yl]-propan-2-ol], the melting point was 158.9 to 161.6 °C.

Take `CSc1c2c(nn1C)N(c1c(C)cc(C)cc1C)CCC2` [Compound 2-20, 2-Methyl-3-methylsulfanyl-7-(2,4,6-trimethyl-phenyl)-4,5,6,7-tetrahydro-2H-pyrazolo[3,4-b]pyridine]: the melting point was 90.3 to 91.7 °C.

`Cc1cc(C)c(N2CCCc3c2nn(C)c3S(C)(=O)=O)c(C)c1` [Compound 2-21, 3-Methanesulfonyl-2-methyl-7-(2,4,6-trimethyl-phenyl)-4,5,6,7-tetrahydro-2H-pyrazolo[3,4-b]pyridine] showed a melting point of 181.6 to 183 °C.

Regarding `Cc1cc(C)c(N2CCCc3c2nn(C)c3C#N)c(C)c1` [Compound 2-22, 2-Methyl-7-(2,4,6-trimethyl-phenyl)-4,5,6,7-tetrahydro-2H-pyrazolo[3,4-b] pyridine-3-carbonitrile], the melting point fell in the range of 128.5 to 136.6 °C.

With `Cc1cc(C)c(N2CCCc3c2nn(C)c3C=O)c(C)c1` [Compound 2-24, 2-Methyl-7-(2,4,6-trimethyl-phenyl)-4,5,6,7-tetrahydro-2H-pyrazolo[3,4-b] pyridine-3-carbaldehyde], the melting point fell in the range of 120.5 to 123.5 °C.

The compound `CC/C=C(\CCC)c1c2c(nn1C)N(c1c(C)cc(C)cc1Cl)CCC2` [Compound 3-1, 7-(2-Chloro-4,6-dimethylphenyl)-2-methyl-3-(1-propylbut-1-enyl)-4,5,6,7-tetrahydro-2H-pyrazolo[3,4-b]pyridine] showed a melting point of 86.7 to 88.2 °C.

In turn, `CC/C=C(\CCC)c1c2c(nn1C)N(c1c(C)cc(C)cc1C)CCC2` [Compound 3-2, 2-Methyl-3-(1-propylbut-1-enyl)-7-(2,4,6-trimethylphenyl)-4,5,6,7-tetrahydro-2H-pyrazolo[3,4-b]pyridine] gave a melting point of 101.6 to 102.6 °C.

In turn, `CC/C=C(\CCC)c1c2c(nn1C)N(c1c(C)cc(C)cc1C)CCCC2` [Compound 3-4, 2-Methyl-3-(1-propylbut-1-enyl)-8-(2,4,6-trimethylphenyl)-2,4,5,6,7,8-hexahydro-1,2,8-triazaazulene] displayed a melting point of 101.9 to 103.9 °C.

The compound `C=Cc1c2c(nn1C)N(c1ccc(Cl)cc1Cl)CCC2` [Compound 3-7, 7-(2,4-Dichloro-phenyl)-2-methyl-3-vinyl-4,5,6,7-tetrahydro-2H-pyrazolo[3,4-b]pyridine] displayed a melting point of 99.6 to 100.6 °C.

(Values after patent publication US7432283B2, “Heterocyclic GABAA subtype selective receptor modulators” (Roche Palo Alto LLC, priority 2004, dated 2008).)
